According to PubChem BioAssay (NCI):
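Cultured in 96-well plates, cells were exposed to test compound for 48 hours across five concentrations. The concentration for 50% growth inhibition is given as GI50. TGI: total growth inhibition.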

What was measured:
Experiment in all cases: growth of human tumour cells (NCI), 48 h
NCI-H522 lung = tested on: NCI-H522 lung
RPMI-8226 leukemia = tested on: RPMI-8226 leukemia
PC-3 prostate = tested on: PC-3 prostate
UACC-62 melanoma = tested on: UACC-62 melanoma
OVCAR-3 ovarian = tested on: OVCAR-3 ovarian
M14 melanoma = tested on: M14 melanoma
BT-549 breast = tested on: BT-549 breast
SK-MEL-5 melanoma = tested on: SK-MEL-5 melanoma
MDA-MB-435 = tested on: MDA-MB-435
OVCAR-8 ovarian = tested on: OVCAR-8 ovarian
KM12 colon = tested on: KM12 colon
NCI-H226 lung = tested on: NCI-H226 lung
UO-31 renal = tested on: UO-31 renal
SK-OV-3 ovarian = tested on: SK-OV-3 ovarian
DU-145 prostate = tested on: DU-145 prostate
NCI-H23 lung = tested on: NCI-H23 lung
SN12C renal = tested on: SN12C renal
HS 578T breast = tested on: HS 578T breast

Compound	TGI (NCI-H522 lung) [µM]	TGI (RPMI-8226 leukemia) [µM]	TGI (PC-3 prostate) [µM]	TGI (UACC-62 melanoma) [µM]	TGI (OVCAR-3 ovarian) [µM]	TGI (M14 melanoma) [µM]	TGI (BT-549 breast) [µM]	TGI (SK-MEL-5 melanoma) [µM]	TGI (MDA-MB-435) [µM]	TGI (OVCAR-8 ovarian) [µM]	TGI (KM12 colon) [µM]	TGI (NCI-H226 lung) [µM]	TGI (UO-31 renal) [µM]	TGI (SK-OV-3 ovarian) [µM]	TGI (DU-145 prostate) [µM]	TGI (NCI-H23 lung) [µM]	TGI (SN12C renal) [µM]	TGI (HS 578T breast) [µM]	GI50 (OVCAR-3 ovarian) [µM]	GI50 (NCI-H226 lung) [µM]
Cc1cc(Cc2cc(C)c(NC(=O)C(=O)C3CCC4=C(SC5C=CC=CC5N4)C3=O)c(C(C)C)c2)cc(C(C)C)c1NC(=O)C(=O)C1CCC2=C(SC3C=CC=CC3N2)C1=O (centres undefined)	67.2	> 100	90.9	> 100	> 100	> 100	> 100	> 100	> 100	> 100	> 100	> 100	> 100	> 100	> 100	> 100	> 100			
CCOC(=O)C1c2[nH]c3ccccc3c2CCN1C(=O)c1ccc(OC)o1 (centres undefined)	> 10	> 10	> 10		> 10	> 10		> 10	> 10	> 10	> 10	> 10	> 10	> 10	> 10	> 10	> 10	> 10		
CC1=C(O)C(=O)C2C(=O)C1C1Cc3ccccc3C21 (centres undefined)	> 100	> 100		> 100	> 100	> 100		> 100		> 100	> 100	> 100	> 100	> 100		> 100				
CC1=C(c2ccccc2)NC(=S)C(C)C(c2ccccc2)=N1 (centres undefined)		57.5		> 100			> 100	82.9	69.3	> 100	> 100	> 100	> 100	> 100	> 100	70.4	> 100			
COc1ccc(C2SCC(=O)N2NC(=O)c2ccc(NC(C)=O)cc2)c(OC)c1 (centres undefined)		> 100		> 100	> 100	> 100	> 100	> 100	> 100	> 100	> 100	> 100	> 100	> 100	> 100	> 100	> 100	> 100		
CC(C)NC(=O)N(Nc1ccccc1)C(C)(C)C			> 100	> 100	> 100	> 100	> 100	> 100		> 100	> 100	> 100	> 100	> 100		> 100	> 100	> 100		
Cc1c2c(c(O)c3c(O)cccc13)C(=O)C1(O)C(O)=C(C(=O)NCNc3ccc(C(N)=O)cn3)C(=O)C(N(C)C)C1C2 (centres undefined)		7.59	30.7	9.59	6.84	> 100	15.5	11.2	27.1	35.5	15.6	> 100		8.78	20	39.3	> 100			
O=[N+]([O-])C(=C(N1CCOCC1)N1CCOCC1)/C(Cl)=C(\Cl)Br	6.71	33.5	> 100		28.5	28.3	28.8			64	76.3	60.5	43.4		> 100	34.1	31.7	> 100		
[N-]=[N+]=NC(c1cn(C2CC(O)C(CO)O2)c(=O)[nH]c1=O)C(Cl)I (centres undefined)		> 100		> 100	> 100	> 100	> 100	> 100	> 100	> 100	> 100	> 100	> 100	> 100	> 100	> 100	> 100	> 100		
NC(=O)NCCCC(NC(=O)OCCCCCCn1ccc(=O)[nH]c1=O)C(=O)O (centres undefined)		> 100	> 100	> 100	> 100	> 100	> 100		> 100	> 100	> 100	> 100	> 100	> 100	> 100	> 100	> 100	> 100		
C=C(CCC/C(C)=C/C=C/[C@@H](C)CCCc1ccoc1)C[C@@H]1OC(=O)[C@H](C)[C@@H]1O	15.5	43.4	15.6	12.3	16	19.9	17.1	14.3	16.3	21.3	16.1	14.1	15.9	15.8	23.5	16.6	20.6			
CCOC(=O)c1cc2/c(=C\c3ccc(N(C)C)cc3)c3ccccc3n2[n+]1C			12.7	14.2	0.581	15.2	7.11	4.04	11.5	36.1	1.4	24.6	19.3	16.3	17.4	12.3	14.4			
COC1CC(COCc2ccccc2)CC(OC)O1 (centres undefined)	> 100	> 100		> 100	> 100	> 100		> 100	> 100	> 100	> 100	> 100	> 100	> 100	> 100	> 100	> 100	> 100		
COc1ccccc1-c1cc(=O)c2cc3c(cc2[nH]1)OCO3		> 100		> 100	> 100			> 100		> 100		88.8	> 100			> 100	> 100		39.9	22.8
CCOc1ccc(N/C(=C(/C(Cl)=C(/Cl)N2CCCCC2)[N+](=O)[O-])n2nnc3ccccc32)cc1	22	> 100	26.1	31.6	33.7	38.2	34.6	29.9	32.3		31.6	58.7	4.17	82	82.4	29.7	41.9			
